Consider two compounds from patent US9764059B2, “Chlorhexidine gluconate containing solvent adhesive” (Avery Dennison Corporation, priority 2011, dated 2017).

One data set in a line: Solubility. Type of data set: physicochemical.
The conditions of data set [1]: cited from earlier work.

As to `N=C(NCCCCCCNC(=N)NC(=N)Nc1ccc(Cl)cc1)NC(=N)Nc1ccc(Cl)cc1` [Chlorhexidine base], in the data set “Solubility”, the solubility in water entry is “low solubility in water”. As for `N=C(NCCCCCCNC(=N)NC(=N)Nc1ccc(Cl)cc1)NC(=N)Nc1ccc(Cl)cc1.O=C(O)[C@H](O)[C@@H](O)[C@H](O)[C@H](O)CO.O=C(O)[C@H](O)[C@@H](O)[C@H](O)[C@H](O)CO` [chlorhexidine gluconate], the solubility in solvents entry in data set [1] was “only soluble in methanol and acetone”.
